We go through 5 compounds from PubChem BioAssay AID2060501 (Molecular Pharmacology Branch, DTP, NCI, 2025).
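Also: spheroids exposed to compounds for 7 days before readout; percent of vehicle DMSO control viability with 100% = untreated-like growth.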

For one assay, the system named is 282377-053-R-J1-PDC complex spheroids, viability. Put plainly: Anticancer human tumor 282377-053-R-J1-PDC patient-derived colon adenocarcinoma cell line growth inhibition [GQUAD]. Particulars: second compound 3.16 µM; first compound 0.1 µM; active compounds read low. An outline of the steps: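 Tumor cells were grown as complex spheroids with HUVEC endothelial cells and mesenchymal stem cells as stroma. G-quadruplex stabilizers were combined with targeted agents over half-log dilutions from near the clinical Cmax, or from 10 microM.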
For orientation: viability, T/C means the result in the treated group divided by that in the control group, in per cent. On to `COc1ncnc(C2CC2)c1-c1ncc2cnn(Cc3ccc(-c4nc(C(F)(F)F)cn4C(C)C)cc3)c2n1` + CN(C)c1ccc(Nc2c3ccc(NC(=O)CCN4CCCC4)cc3nc3cc(NC(=O)CCN4CCCC4)ccc23)cc1, for which the viability, T/C was 85.8%.
Regarding `CC1COCCN1c1cc(C2(S(C)(=N)=O)CC2)nc(-c2ccnc3[nH]ccc23)n1` (stereo unspecified) + Cc1[nH]c2ccc(F)cc2c1-c1nc2c3cccnc3c3ncccc3c2[nH]1, the viability, T/C is 71%.
Turning to `COc1ccc([C@@H](O)c2cc(-c3ncnc4cc(N5CCOCC5)ccc34)c(F)cc2Cl)nn1` + Cc1[nH]c2ccc(F)cc2c1-c1nc2c3cccnc3c3ncccc3c2[nH]1, the viability, T/C is 68.6%.

Still in this assay, the particulars now being: second compound 3.16 µM; first compound 0.316 µM; active compounds read low.
In the case of `C=CCn1c(=O)c2cnc(Nc3ccc(N4CCN(C)CC4)cc3)nc2n1-c1cccc(C(C)(C)O)n1` + CN(C)c1ccc(Nc2c3ccc(NC(=O)CCN4CCCC4)cc3nc3cc(NC(=O)CCN4CCCC4)ccc23)cc1, the viability, T/C was 92.8%.
With `CC(C)(O)C1CCC(Nc2ccc3ncc(-c4cccc(C(F)(F)F)c4)n3n2)CC1` (stereo unspecified) + CN(C)c1ccc(Nc2c3ccc(NC(=O)CCN4CCCC4)cc3nc3cc(NC(=O)CCN4CCCC4)ccc23)cc1, the viability, T/C is 105%.
`COc1ncnc(C2CC2)c1-c1ncc2cnn(Cc3ccc(-c4nc(C(F)(F)F)cn4C(C)C)cc3)c2n1` + CN(C)c1ccc(Nc2c3ccc(NC(=O)CCN4CCCC4)cc3nc3cc(NC(=O)CCN4CCCC4)ccc23)cc1: the viability, T/C is 88.2%.
Take `CC1COCCN1c1cc(C2(S(C)(=N)=O)CC2)nc(-c2ccnc3[nH]ccc23)n1` (stereo unspecified) + Cc1[nH]c2ccc(F)cc2c1-c1nc2c3cccnc3c3ncccc3c2[nH]1: the viability, T/C is 56.2%.
For `COc1ccc([C@@H](O)c2cc(-c3ncnc4cc(N5CCOCC5)ccc34)c(F)cc2Cl)nn1` + Cc1[nH]c2ccc(F)cc2c1-c1nc2c3cccnc3c3ncccc3c2[nH]1, the viability, T/C was 47.2%.

Staying with this assay, now noted: second compound 3.16 µM; first compound 1 µM; active compounds read low.
For the compound `C=CCn1c(=O)c2cnc(Nc3ccc(N4CCN(C)CC4)cc3)nc2n1-c1cccc(C(C)(C)O)n1` + CN(C)c1ccc(Nc2c3ccc(NC(=O)CCN4CCCC4)cc3nc3cc(NC(=O)CCN4CCCC4)ccc23)cc1, the viability, T/C was 68.5%.
On to `CC(C)(O)C1CCC(Nc2ccc3ncc(-c4cccc(C(F)(F)F)c4)n3n2)CC1` (stereo unspecified) + CN(C)c1ccc(Nc2c3ccc(NC(=O)CCN4CCCC4)cc3nc3cc(NC(=O)CCN4CCCC4)ccc23)cc1, for which the viability, T/C is 71%.
On the same count and under the same terms, as for `COc1ncnc(C2CC2)c1-c1ncc2cnn(Cc3ccc(-c4nc(C(F)(F)F)cn4C(C)C)cc3)c2n1` + CN(C)c1ccc(Nc2c3ccc(NC(=O)CCN4CCCC4)cc3nc3cc(NC(=O)CCN4CCCC4)ccc23)cc1, the figure is 86.4%.
Still for that read-out and setting: as for `CC1COCCN1c1cc(C2(S(C)(=N)=O)CC2)nc(-c2ccnc3[nH]ccc23)n1` (stereo unspecified) + Cc1[nH]c2ccc(F)cc2c1-c1nc2c3cccnc3c3ncccc3c2[nH]1, the figure is 47.8%; as for `COc1ccc([C@@H](O)c2cc(-c3ncnc4cc(N5CCOCC5)ccc34)c(F)cc2Cl)nn1` + Cc1[nH]c2ccc(F)cc2c1-c1nc2c3cccnc3c3ncccc3c2[nH]1, 42.8%.

The assay is the same for the next values; noted with them: second compound 3.16 µM; first compound 3.16 µM; active compounds read low.
As for `C=CCn1c(=O)c2cnc(Nc3ccc(N4CCN(C)CC4)cc3)nc2n1-c1cccc(C(C)(C)O)n1` + CN(C)c1ccc(Nc2c3ccc(NC(=O)CCN4CCCC4)cc3nc3cc(NC(=O)CCN4CCCC4)ccc23)cc1, the viability, T/C is 31.8%.
On to `CC(C)(O)C1CCC(Nc2ccc3ncc(-c4cccc(C(F)(F)F)c4)n3n2)CC1` (stereo unspecified) + CN(C)c1ccc(Nc2c3ccc(NC(=O)CCN4CCCC4)cc3nc3cc(NC(=O)CCN4CCCC4)ccc23)cc1, for which the viability, T/C is 23.4%.
With `COc1ncnc(C2CC2)c1-c1ncc2cnn(Cc3ccc(-c4nc(C(F)(F)F)cn4C(C)C)cc3)c2n1` + CN(C)c1ccc(Nc2c3ccc(NC(=O)CCN4CCCC4)cc3nc3cc(NC(=O)CCN4CCCC4)ccc23)cc1, the viability, T/C is 75%.
On to `CC1COCCN1c1cc(C2(S(C)(=N)=O)CC2)nc(-c2ccnc3[nH]ccc23)n1` (stereo unspecified) + Cc1[nH]c2ccc(F)cc2c1-c1nc2c3cccnc3c3ncccc3c2[nH]1, for which the viability, T/C was 31.9%.
On the same count and under the same terms, as for `COc1ccc([C@@H](O)c2cc(-c3ncnc4cc(N5CCOCC5)ccc34)c(F)cc2Cl)nn1` + Cc1[nH]c2ccc(F)cc2c1-c1nc2c3cccnc3c3ncccc3c2[nH]1, the figure is 33.2%.

Still in this assay, the particulars now being: second compound 3.16 µM; first compound 10 µM; active compounds read low.
With `C=CCn1c(=O)c2cnc(Nc3ccc(N4CCN(C)CC4)cc3)nc2n1-c1cccc(C(C)(C)O)n1` + CN(C)c1ccc(Nc2c3ccc(NC(=O)CCN4CCCC4)cc3nc3cc(NC(=O)CCN4CCCC4)ccc23)cc1, the viability, T/C was 16.1%.
The same measure, in the same setting: as for `CC(C)(O)C1CCC(Nc2ccc3ncc(-c4cccc(C(F)(F)F)c4)n3n2)CC1` (stereo unspecified) + CN(C)c1ccc(Nc2c3ccc(NC(=O)CCN4CCCC4)cc3nc3cc(NC(=O)CCN4CCCC4)ccc23)cc1, the figure is 21.8%; as for `COc1ncnc(C2CC2)c1-c1ncc2cnn(Cc3ccc(-c4nc(C(F)(F)F)cn4C(C)C)cc3)c2n1` + CN(C)c1ccc(Nc2c3ccc(NC(=O)CCN4CCCC4)cc3nc3cc(NC(=O)CCN4CCCC4)ccc23)cc1, 77.7%.
As for `CC1COCCN1c1cc(C2(S(C)(=N)=O)CC2)nc(-c2ccnc3[nH]ccc23)n1` (stereo unspecified) + Cc1[nH]c2ccc(F)cc2c1-c1nc2c3cccnc3c3ncccc3c2[nH]1, the viability, T/C was 10.4%.
The same measure, in the same setting: as for `COc1ccc([C@@H](O)c2cc(-c3ncnc4cc(N5CCOCC5)ccc34)c(F)cc2Cl)nn1` + Cc1[nH]c2ccc(F)cc2c1-c1nc2c3cccnc3c3ncccc3c2[nH]1, the figure is 15.9%.

The same assay, now with this note: second compound 10 µM; first compound 0.0316 µM; active compounds read low.
For the compound `C=CCn1c(=O)c2cnc(Nc3ccc(N4CCN(C)CC4)cc3)nc2n1-c1cccc(C(C)(C)O)n1` + CN(C)c1ccc(Nc2c3ccc(NC(=O)CCN4CCCC4)cc3nc3cc(NC(=O)CCN4CCCC4)ccc23)cc1, the viability, T/C is 86.7%.
Turning to `CC(C)(O)C1CCC(Nc2ccc3ncc(-c4cccc(C(F)(F)F)c4)n3n2)CC1` (stereo unspecified) + CN(C)c1ccc(Nc2c3ccc(NC(=O)CCN4CCCC4)cc3nc3cc(NC(=O)CCN4CCCC4)ccc23)cc1, the viability, T/C is 97.3%.
Same read-out and setting: as for `COc1ncnc(C2CC2)c1-c1ncc2cnn(Cc3ccc(-c4nc(C(F)(F)F)cn4C(C)C)cc3)c2n1` + CN(C)c1ccc(Nc2c3ccc(NC(=O)CCN4CCCC4)cc3nc3cc(NC(=O)CCN4CCCC4)ccc23)cc1, the figure is 85.4%.
